The values that follow come from paper PMC8245553, “Identification of natural product modulators of Merkel cell carcinoma cell growth and survival” (Scientific Reports, 2021).

This assay deals with MKL-1 (VP-MCC) cells. The assay can be described thus: Differential growth inhibition/cytotoxicity assay (CellTiterGlo/XTT), MKL-1. As to conditions: Homo sapiens, MKL-1, 72 h, read-out: IC50 (ave ± sd). On the technique in general: ATP-based viability assays read luminescence as a measure of living cells.

With `CC1(C)CCC(c2ccc(Cl)cc2)=C(CN2CCN(c3ccc(C(=O)NS(=O)(=O)c4ccc(N[C@H](CCN5CCOCC5)CSc5ccccc5)c(S(=O)(=O)C(F)(F)F)c4)cc3)CC2)C1` [Navitoclax], the IC50 (commonly the point on the concentration scale where inhibition reaches its midpoint) came out at 200 ± 29 nM.
